Measurements published in patent publication US10336746B1, “RAD51 inhibitors” (Cyteir Therapeutics, Inc., priority 2017, dated 2019).

What follows are compounds tested on Daudi cell line (AID positive) (assay: Primary screening cell killing assay, Daudi cell line (AID positive)). Settings: Homo sapiens, 168 h, cell death on Day 7, Cell-Titer Glo.
Format: cell-based
Procedure: Primary screening was a phenotypic screen that utilized the synthetic lethal interaction between AID and RAD51 to identify compounds that were both potent and on target. AID expressing cells are dependent upon RAD51 for survival; inhibiting RAD51 in AID positive cells results in a cytotoxic effect.
The first step was to set up a cell killing assay in the Daudi cell line (AID positive). A 96 well u-bottom plate was prepared by writing the experiment number, plate number, date and initials in the top right corner of the plate lid. With a sterile 300 ml reservoir, and 25 ml serological pipette, evaporation buffer media was pipetted into reservoir in 25 ml increments. Using the liquid handler, 150 ul of evaporation buffer media was pipetted from reservoir into rows A and H, and Columns 1 and 12 of the 96 well u-bottom plate. Cell cultures were counted to obtain the density of cells per ml, and the culture viability. The cell density information was used to obtain 1,000,000 cells from culture using a 5 mL serological pipette into an epi tube. The cell density information from the culture was used to calculate the number of cells and volume of media needed for the assay to seed 1250 cells in 130 ul of media per available culture well in the 96 well u-bottom plate. Rows B through F were used for cells (50 wells in total), with row G left for an empty media control. The calculation was overestimated by 10 mL to account for the dead volume in the 300 ml reservoir. Once the media volume was calculated, the appropriate volume of media was pipetted in 25 mL increments into the 250 mL bottle using a 25 mL serological pipette. The 250 ml bottle was capped tightly, and placed into a 37° C. water bath for 2 minutes. While the culture media was warming, 10 mL of fresh media was pipetted from the 500 mL culture media bottle into a sterile 25 mL reservoir. Using the Eppendorf multichannel pipette, 130 ul of media was pipetted from the 25 mL reservoir into row G of the 96 well u-bottom plate. Once the 250 mL bottle of media was warmed, the volume of culture needed was pipetted into the bottle, and mixed gently with a 25 mL serological pipette as to not create bubbles, and then the contents of the bottle were pipetted into a new 300 mL reservoir. Using the liquid handler, 130 ul of culture was pipetted from the 300 mL reservoir into rows B through F of the 96 well u-bottom plate. Once the culture was added, the plate was placed into a 37° C. incubator until the compound master plate was prepared for use.
Two 96 well u-bottom plates were prepared by writing the master plate name in the upper right corner of the plate lid. Labeling one DMSO master and the other Media Master. The compounds of interest were obtained from the laboratory freezer, and placed into a 25 well storage box with a lid, and set the box aside. The compounds were vortexed after thawing but before use. Using an automatic multichannel pipette, 20 ul of 100% DMSO was pipetted into wells B3-B11 through G3-G11 of the DMSO master plate. For each compound on the master plate, 50 ul of the compound were pipetted in the appropriate well of row 2 (reference plate map to determine appropriate well). A serial dilution was prepared beginning by aspirating 20 ul from row 2 and mixing with row 3, repeating until row 11 was reached. Using the liquid handler, 194 ul of Daudi media was dispensed into wells B2-B11 through G2-G11 of the Media master plate. Using the liquid handler, 6 ul from the DMSO master plate was aspirated and dispensed into the media master plate, mixing 100 ul twice.
Compounds from master plate were then added to the culture plate. The culture plates were removed from the incubator, and set inside the biosafety cabinet. Using a liquid handler, 20 ul from wells B2 to B11 through G2 to G11 of master plate were aspirated, and dispensed into wells B2 to B11 through G2 to G11 of culture plate. This set was continued with each culture plate. […]
For `CN1CCC[C@H]1COC(=O)Nc1ccc(-c2cnc(N3CCC(OC(=O)NCc4ccccc4)CC3)s2)c(S(=O)(=O)NC(C)(C)C)c1` [Ex. 1, (S)-(1-methylpyrrolidin-2-yl)methyl (4-(2-(4-((benzylcarbamoyl)oxy)piperidin-1-yl)thiazol-5-yl)-3-(N-(tert-butyl)sulfamoyl)phenyl)carbamate], the EC50 was > 1 µM. For `CN1CCC[C@@H]1COC(=O)Nc1ccc(-c2cnc(N3CCC(OC(=O)NCc4ccccc4)CC3)s2)c(S(=O)(=O)NC(C)(C)C)c1` [Ex. 2, [1-[5-[2-(tert-butylsulfamoyl)-4-[[(2R)-1-methylpyrrolidin-2-yl]methoxycarbonylamino]phenyl]thiazol-2-yl]-4-piperidyl] N-benzylcarbamate], the EC50 was > 1 µM. With `CC(C)OC(=O)N1CCN(c2ncc(-c3ccc(NC(=O)OCc4ccccc4)cc3S(=O)(=O)NC(C)(C)C)s2)CC1` [Ex. 6, isopropyl 4-[5-[4-(benzyloxycarbonylamino)-2-(tert-butylsulfamoyl)phenyl]thiazol-2-yl]piperazine-1-carboxylate] the EC50 was > 1 µM. With `CC(C)OC(=O)Nc1ccc(-c2cnc(C3CCC(NC(=O)OC[C@H]4CCCN4C)CC3)s2)c(S(=O)(=O)NC(C)(C)C)c1` (stereo partly drawn) [Ex. 8, [(2R)-1-methylpyrrolidin-2-yl]methyl N-[4-[5-[2-(tert-butylsulfamoyl)-4-(isopropoxycarbonylamino)phenyl]thiazol-2-yl]cyclohexyl]carbamate] the EC50 was > 1 µM. Compound `CC(C)OC(=O)Nc1ccc(-c2cnc(C3CCC(NC(=O)OC[C@@H]4CCCN4C)CC3)s2)c(S(=O)(=O)NC(C)(C)C)c1` (stereo partly drawn) [Ex. 9, isopropyl (3-(N-(tert-butyl)sulfamoyl)-4-(2-((1S,4r)-4-(((((S)-1-methylpyrrolidin-2-yl)methoxy)carbonyl)amino)cyclohexyl)thiazol-5-yl)phenyl)carbamate] has an EC50 of 0.1 to 1 µM. Compound `CN1CCC[C@@H]1COC(=O)NC1CCC(c2ncc(-c3ccc(NC(=O)NCc4ccccc4)cc3S(=O)(=O)NC(C)(C)C)s2)CC1` (stereo partly drawn) [Ex. 11, [(2R)-1-methylpyrrolidin-2-yl]methyl N-[4-[5-[4-(benzylcarbamoylamino)-2-(tert-butylsulfamoyl)phenyl]thiazol-2-yl]cyclohexyl]carbamate] has an EC50 of 0.1 to 1 µM. Compound `CN1CCC[C@H]1COC(=O)N[C@H]1CC[C@H](c2ncc(-c3ccc(NC(=O)NCc4ccccc4)cc3S(=O)(=O)NC(C)(C)C)s2)CC1` [Ex. 12, ((S)-1-methylpyrrolidin-2-yl)methyl ((1r,4S)-4-(5-(4-(3-benzylureido)-2-(N-(tert-butyl)sulfamoyl)phenyl)thiazol-2-yl)cyclohexyl)carbamate] has an EC50 of 0.1 to 1 µM. For `CC(C)OC(=O)N[C@H]1CC[C@H](c2ncc(-c3ccc(NC(=O)NCc4ccncc4)cc3S(=O)(=O)NC(C)(C)C)s2)CC1` [Ex. 22, trans-isopropyl N-[4-[5-[2-(tert-butylsulfamoyl)-4-(4-pyridylmethylcarbamoylamino)phenyl]thiazol-2-yl]cyclohexyl]carbamate], the EC50 was 0.1 to 1 µM. With `CC(C)OC(=O)N[C@H]1CC[C@H](c2ncc(-c3ccc(NC(=O)NCc4ccc(F)cc4)cc3S(=O)(=O)NC(C)(C)C)s2)CC1` [Ex. 23, isopropyl ((1r,4r)-4-(5-(2-(N-(tert-butyl)sulfamoyl)-4-(3-(4-fluorobenzyl)ureido)phenyl)thiazol-2-yl)cyclohexyl)carbamate] the EC50 was ≤ 0.1 µM. In the case of `CC(C)OC(=O)N[C@H]1CC[C@H](c2ncc(-c3ccc(NC(=O)NCc4cccnc4)cc3S(=O)(=O)NC(C)(C)C)s2)CC1` [Ex. 25, isopropyl ((1r,4r)-4-(5-(2-(N-(tert-butyl)sulfamoyl)-4-(3-(pyridin-3-ylmethyl)ureido)phenyl)thiazol-2-yl)cyclohexyl)carbamate], the EC50 is reported as ≤ 0.1 µM. For `CC(C)OC(=O)N[C@H]1CC[C@H](c2ncc(-c3ccc(NC(=O)OCC4CCNCC4)cc3S(=O)(=O)NC(C)(C)C)s2)CC1` [Ex. 33, trans-4-piperidylmethyl N-[3-(tert-butylsulfamoyl)-4-[2-[4-(isopropoxycarbonylamino)cyclohexyl]thiazol-5-yl]phenyl]carbamate], the EC50 was > 1 µM. `CC(C)OC(=O)NC1CCC(c2ncc(-c3ccc(NC(=O)OC[C@H]4CCCN4)cc3S(=O)(=O)NC(C)(C)C)s2)CC1` (stereo partly drawn) [Ex. 36, isopropyl ((1R,4r)-4-(5-(2-(N-(tert-butyl)sulfamoyl)-4-(((((R)-pyrrolidin-2-yl)methoxy)carbonyl)amino)phenyl)thiazol-2-yl)cyclohexyl)carbamate] showed an EC50 of 0.1 to 1 µM. For `CC(C)OC(=O)NC1CCC(c2ncc(-c3ccc(NC(=O)OC[C@@H]4CCCN4)cc3S(=O)(=O)NC(C)(C)C)s2)CC1` (stereo partly drawn) [Ex. 37, isopropyl ((1S,4r)-4-(5-(2-(N-(tert-butyl)sulfamoyl)-4-(((((S)-pyrrolidin-2-yl)methoxy)carbonyl)amino)phenyl)thiazol-2-yl)cyclohexyl)carbamate], the EC50 was 0.1 to 1 µM. `COc1cc(NC(=O)OC(C)C)cnc1-c1ncc(-c2ccc(NC(=O)OCC3CCNCC3)cc2S(=O)(=O)NC(C)(C)C)s1` [Ex. 56, 4-piperidylmethyl N-[3-(tert-butylsulfamoyl)-4-[2-[5-(isopropoxycarbonylamino)-3-methoxy-2-pyridyl]thiazol-5-yl]phenyl]carbamate] gave an EC50 of 0.1 to 1 µM. Compound `CC(C)OC(=O)N[C@H]1CC[C@@H](c2ncc(-c3ccc(NC(=O)NCc4ccccc4)cc3S(=O)(=O)NC(C)(C)C)s2)CC1` [Ex. 66B, cis-isopropyl N-[4-[5-[4-(benzylcarbamoylamino)-2-(tert-butylsulfamoyl)phenyl]thiazol-2-yl]cyclohexyl]carbamate] has an EC50 of 0.1 to 1 µM. In the case of `CC(C)OC(=O)Nc1ccc(-c2cnc([C@H]3CC[C@@H](NC(=O)OC(C)C)CC3)s2)c(S(=O)(=O)NC(C)(C)C)c1` [Ex. 67B, cis-isopropyl N-[3-(tert-butylsulfamoyl)-4-[2-[4-(isopropoxycarbonylamino)cyclohexyl]thiazol-5-yl]phenyl]carbamate], the EC50 is reported as > 1 µM. `CC(C)OC(=O)NC1CCN(c2ncc(-c3ccc(NC(=O)NCc4ccccc4)cc3S(=O)(=O)NC(C)(C)C)s2)CC1` [Ex. 68, isopropyl N-[1-[5-[4-(benzylcarbamoylamino)-2-(tert-butylsulfamoyl)phenyl]thiazol-2-yl]-4-piperidyl]carbamate] gave an EC50 of 0.1 to 1 µM. `CC(C)OC(=O)Nc1ccc(-c2cnc(N3CCC(NC(=O)OC(C)C)CC3)s2)c(S(=O)(=O)NC(C)(C)C)c1` [Ex. 69, isopropyl N-[1-[5-[2-(tert-butylsulfamoyl)-4-(isopropoxycarbonylamino)phenyl]thiazol-2-yl]-4-piperidyl]carbamate] was tested, and the EC50 was > 1 µM.
